According to patent publication US20080090805A1, “CB-1 MODULATING COMPOUNDS AND THEIR USE” (ACADIA PHARMACEUTICALS INC., priority 2005, published 2008):
Like-named read-outs stand apart in the source and are kept apart here.

Target: CB1 (mutant) (Homo sapiens, UniProt P21554)
Experiment: R-SAT functional receptor assay, CB1 (mutant, truncated after amino acid 417)
Format: cell-based
Conditions: R-SAT CB1; for IC50 / pIC50: receptor form (mutant or wild-type) not stated
[1] = Appendix A, read-out: pIC50 (converted)
[2] = Appendix A, receptor form not stated, relative to SR141716 (100%), read-out: % Inhibition

Chain of CB1 (mutant) (P21554 1-417, change not shown): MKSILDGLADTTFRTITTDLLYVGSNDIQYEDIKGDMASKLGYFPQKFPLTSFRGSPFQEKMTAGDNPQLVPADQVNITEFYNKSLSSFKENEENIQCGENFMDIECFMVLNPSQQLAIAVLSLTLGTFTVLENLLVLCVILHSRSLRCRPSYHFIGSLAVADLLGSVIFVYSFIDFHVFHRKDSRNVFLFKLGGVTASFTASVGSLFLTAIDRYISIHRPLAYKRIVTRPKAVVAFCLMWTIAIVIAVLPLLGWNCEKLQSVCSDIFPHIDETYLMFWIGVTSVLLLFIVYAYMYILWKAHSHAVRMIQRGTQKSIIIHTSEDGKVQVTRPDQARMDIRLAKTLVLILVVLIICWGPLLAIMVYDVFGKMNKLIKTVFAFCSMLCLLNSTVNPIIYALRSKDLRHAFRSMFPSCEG

O=C(NCCc1cccc(Cl)c1)c1ccc2c(c1)N=C(c1ccccc1)c1ccccc1S2 [drawing 1069]
IC50 [1]: 31.6 nM | Emax [2]: 102%

CCCCNC(=O)c1ccc2c(c1)N=C(c1ccc(Cl)s1)c1ccccc1S2 [drawing 575]
IC50 [1]: 3.16 nM | % Inhibition (Appendix A, receptor form not stated, relative to SR141716 (100%)): 97%

O=C(c1ccc2c(c1)N=C(C1CCCCC1)c1ccccc1S2)N1CCCCC1
Emax [2]: 26%

CCN(CCNC(=O)c1ccc2c(c1)N=C(c1ccccc1)c1ccccc1S2)c1ccccc1 [drawing 777]
IC50 [1]: 10 nM | Emax [2]: 106%

Cc1ccc(CNC(=O)c2ccc3c(c2)N=C(c2ccc(Cl)c(Cl)c2)c2ccccc2S3)o1 [drawing 801]
IC50 [1]: 10 nM | Emax [2]: 100%

CCCC1=Nc2cc(C(=O)NCCCN3CCCCC3CC)ccc2Sc2ccccc21 (stereo not drawn)
Emax [2]: 128%

CCCCN(C)C(=O)c1ccc2c(c1)N=C(c1ccc(Cl)cc1)c1ccccc1S2
IC50 [1]: 63.1 nM | Emax [2]: 92%

O=C(NCc1ccc(F)cc1)c1ccc2c(c1)N=C(C1CCCCC1)c1ccccc1S2 [drawing 591]
IC50 [1]: 3.16 nM | Emax [2]: 102%

O=C(NCCc1ccc(Cl)cc1)c1ccc2c(c1)N=C(c1ccc(Cl)cc1)c1ccccc1S2 [drawing 631]
IC50 [1]: 5.01 nM | Emax [2]: 104%

O=C(NCc1ccco1)c1ccc2c(c1)N=C(c1ccccn1)c1ccccc1S2
IC50 [1]: 31.6 nM | Emax [2]: 102%

CC(C)NC(=O)c1ccc2c(c1)N=C(c1ccc(Cl)cc1)c1ccccc1S2 [drawing 576]
IC50 [1]: 50.1 nM | Emax [2]: 98%

O=C(NNC(=O)c1ccc2c(c1)N=C(c1ccc(F)cc1)c1ccccc1S2)c1ccccc1 [drawing 764]
IC50 [1]: 100 nM | Emax [2]: 83%

CCCC1=Nc2cc(C(=O)NCCc3ccc(OC)cc3OC)ccc2Sc2ccccc21 [drawing 570]
IC50 [1]: 50.1 nM | Emax [2]: 101%

CCCC1=Nc2cc(C(=O)NCCCN3CCC(Cc4ccccc4)CC3)ccc2Sc2ccccc21
Emax [2]: 115%

Cc1cccc(C2=Nc3cc(C(=O)NC4CCC(F)(F)CC4)ccc3Sc3ccccc32)n1 [drawing 869]
IC50 [1]: 15.8 nM | Emax [2]: 74%

CCCC1=Nc2cc(C(=O)NCCCN(CC)CC)ccc2Sc2ccccc21
IC50 [1]: 2510 nM | Emax [2]: 125%

O=C(NN1CCCCC1)c1ccc2c(c1)N=C(c1cccc(Br)c1)c1ccccc1S2 [drawing 723]
Emax [2]: 92% | IC50 (pIC50, Appendix A): 7.94 nM

O=C(NCc1ccc(Cl)cc1Cl)c1ccc2c(c1)N=C(C1CCCCC1)c1ccccc1S2
IC50 [1]: 31.6 nM | Emax [2]: 90%

CC(CNC(=O)c1ccc2c(c1)N=C(c1ccccc1)c1ccccc1S2)c1ccccc1 (stereo not drawn) [drawing 729]
IC50 [1]: 7.94 nM | Emax [2]: 101%

Cc1csc(CNC(=O)c2ccc3c(c2)N=C(c2ccsc2)c2ccccc2S3)c1 [drawing 563]
IC50 [1]: 2.51 nM | Emax [2]: 93%

CC(C)CNC(=O)c1ccc2c(c1)N=C(c1cccc(F)c1)c1ccccc1S2 [drawing 629]
IC50 [1]: 5.01 nM | Emax [2]: 112%

CN1c2ccc(C(=O)NCc3ccc(F)cc3)cc2N=C(c2ccc(F)cc2)c2ccccc21 [drawing 752]
IC50 [1]: 79.4 nM | Emax [2]: 91%

O=C(NC1CCCCNC1=O)c1ccc2c(c1)N=C(c1ccc(Cl)cc1)c1ccccc1S2 (stereo not drawn)
IC50 [1]: 100 nM | Emax [2]: 81%

O=C(NCCc1cccnc1)c1ccc2c(c1)N=C(c1ccc(Cl)cc1Cl)c1ccccc1S2
IC50 [1]: 200 nM | Emax [2]: 74%

Cc1ccsc1C1=Nc2cc(C(=O)NC3CCCC3)ccc2Sc2ccccc21 [drawing 652]
IC50 [1]: 63.1 nM | Emax [2]: 81%

O=C(NN1CCCC1)c1ccc2c(c1)N=C(c1cccc(F)c1)c1ccccc1S2
Emax [2]: 67%

CCCCNC(=O)c1ccc2c(c1)N=C(c1sccc1C)c1ccccc1S2 [drawing 881]
Emax [2]: 91% | IC50 (pIC50, Appendix A): 15.8 nM

O=C(NCc1ccco1)c1ccc2c(c1)N=C(c1cccc(F)c1)c1ccccc1S2 [drawing 693]
Emax [2]: 104% | IC50 (pIC50, Appendix A): 6.31 nM

O=C(NN1CCCCCC1)c1ccc2c(c1)N=C(c1cccc(Cl)c1)c1ccccc1S2 [drawing 597]
IC50 [1]: 3.98 nM | Emax [2]: 95%

CCCCNC(=O)c1ccc2c(c1)N=C(c1ccc(Cl)c(F)c1)c1ccccc1S2 [drawing 769]
IC50 [1]: 10 nM | Emax [2]: 106%

O=C(NCc1ccccc1)c1ccc2c(c1)N=C(c1ccccc1)c1ccccc1S2 [drawing 755]
IC50 [1]: 10 nM | Emax [2]: 111%

O=C(NCc1ccccn1)c1ccc2c(c1)N=C(c1ccc(Br)cc1)c1ccccc1S2 [drawing 612]
IC50 [1]: 50.1 nM | Emax [2]: 90%

CC(C)NC(=O)c1ccc2c(c1)N=C(c1cccc(Cl)c1)c1ccccc1S2 [drawing 921]
IC50 [1]: 15.8 nM | Emax [2]: 118%

CC(C)NC(=O)c1ccc2c(c1)N=C(c1ccc(Br)cc1)c1ccccc1S2
Emax [2]: 83%

O=C(NCc1ccncc1)c1ccc2c(c1)N=C(c1cccc(Br)c1)c1ccccc1S2 [drawing 977]
IC50 [1]: 20 nM | Emax [2]: 95%

CCCC1=Nc2cc(C(=O)NCCCN(CC(C)C)CC(C)C)ccc2Sc2ccccc21
IC50 [1]: 63.1 nM | Emax [2]: 103%

O=C(NC1CCCC1)c1ccc2c(c1)N=C(c1ccccn1)c1ccccc1S2
IC50 [1]: 158 nM | Emax [2]: 81%

CCCCC1=Nc2cc(C(=O)NC3CCN(C(=O)OCC)CC3)ccc2Sc2ccccc21
IC50 [1]: 501 nM | Emax [2]: 96%

Cc1ccsc1C1=Nc2cc(C(=O)NC(C)C)ccc2Sc2ccccc21 [drawing 684]
IC50 [1]: 63.1 nM | Emax [2]: 95%

CCCC1=Nc2cc(C(=O)NCC(C)c3ccccc3)ccc2Sc2ccccc21 (stereo not drawn) [drawing 735]
IC50 [1]: 7.94 nM | Emax [2]: 104%

O=C(NCCc1cccnc1)c1ccc2c(c1)N=C(c1ccccc1F)c1ccccc1S2
IC50 [1]: 79.4 nM | Emax [2]: 110%

CON(C)C(=O)c1ccc2c(c1)N=C(c1ccc(Cl)cc1F)c1ccccc1S2
IC50 [1]: 1580 nM | Emax [2]: 46%

O=C(NCc1ccc(F)cc1)c1ccc2c(c1)N=C(N1CCCCC1)c1ccccc1S2 [drawing 611]
IC50 [1]: 3.98 nM | Emax [2]: 80%

O=C(NCc1cccc(Cl)c1)c1ccc2c(c1)N=C(c1cccc(Cl)c1)c1ccccc1S2 [drawing 603]
IC50 [1]: 3.98 nM | Emax [2]: 112%

O=C(NCCc1cccc(Cl)c1)c1ccc2c(c1)N=C(N1CCCCC1)c1ccccc1S2 [drawing 973]
IC50 [1]: 20 nM | Emax [2]: 108%

CC(C)CNC(=O)c1ccc2c(c1)N=C(c1cccc(Cl)c1)c1ccccc1S2 [drawing 609]
IC50 [1]: 3.98 nM | Emax (read-out: % Inhibition, Appendix A, receptor form not stated, relative to SR141716 (100%)): 116%

O=C(NCCc1ccc(Cl)cc1)c1ccc2c(c1)N=C(N1CCC(F)(F)CC1)c1ccccc1S2 [drawing 628]
IC50 [1]: 63.1 nM | Emax [2]: 99%

CCCC1=Nc2cc(C(=O)NCCN3CCN(c4cccc(C)c4C)CC3)ccc2Sc2ccccc21
IC50 [1]: 3160 nM | Emax [2]: 84%

CCCCNC(=O)c1cc2c(cc1O)Sc1ccccc1C(c1ccc(Cl)cc1)=N2 [drawing 552]
IC50 [1]: 50.1 nM | Emax [2]: 95%

CONC(=O)c1ccc2c(c1)N=C(c1cccc(Cl)c1)c1ccccc1S2
IC50 [1]: 398 nM | Emax [2]: 89%

CON(C)C(=O)c1ccc2c(c1)N=C(c1ccc(Cl)s1)c1ccccc1S2
IC50 [1]: 501 nM | Emax [2]: 55%

CCCCN(C)C(=O)c1ccc2c(c1)N=C(c1ccccc1Cl)c1ccccc1S2
Emax [2]: 40%

CC(C)NC(=O)c1ccc2c(c1)N=C(c1ccccn1)c1ccccc1S2
IC50 [1]: 794 nM | Emax [2]: 60%

CCONC(=O)c1ccc2c(c1)N=C(c1ccccc1Cl)c1ccccc1S2
pIC50 (Appendix A): 1.0 | Emax [2]: 19%

CCCCNC(=O)c1ccc2c(c1)N=C(c1ccc(Br)cn1)c1ccccc1S2 [drawing 807]
IC50 [1]: 10 nM | Emax [2]: 105%

CC(C)CCNC(=O)c1ccc2c(c1)N=C(c1cccc(F)c1)c1ccccc1S2 [drawing 671]
Emax [2]: 100% | IC50 (pIC50, Appendix A): 6.31 nM

Cc1ccsc1C1=Nc2cc(C(=O)NCCC(C)C)ccc2Sc2ccccc21 [drawing 945]
IC50 [1]: 20 nM | Emax [2]: 106%

COc1ccccc1C1=Nc2cc(C(=O)NCCC(C)C)ccc2Sc2ccccc21
Emax [2]: 91%

O=C(NCc1ccccc1Cl)c1ccc2c(c1)N=C(c1cccc(Cl)c1)c1ccccc1S2 [drawing 955]
IC50 [1]: 20 nM | Emax [2]: 102%

Cc1ccc(CNC(=O)c2ccc3c(c2)N=C(c2sccc2C)c2ccccc2S3)o1 [drawing 953]
IC50 [1]: 20 nM | Emax [2]: 79%

CCCC1=Nc2cc(C(=O)N3CCC(N4CCCCC4)CC3)ccc2Sc2ccccc21
IC50 [1]: 2510 nM | Emax [2]: 128%

O=C(NNC(=O)c1ccc2c(c1)N=C(c1ccc(Br)cc1)c1ccccc1S2)c1ccccc1
IC50 [1]: 251 nM | Emax [2]: 88%

O=C(NN1CCCCC1)c1ccc2c(c1)N=C(Nc1ccccc1)c1ccccc1S2
IC50 [1]: 2000 nM | Emax [2]: 92%

CCONC(=O)c1ccc2c(c1)N=C(c1ccccn1)c1ccccc1S2
pIC50 (Appendix A): 1.0 | Emax [2]: 3%

CCCCNC(=O)c1ccc2c(c1)N=C(c1ccc(F)cc1)c1ccccc1S2 [drawing 785]
Emax [2]: 96% | IC50 (pIC50, Appendix A): 10 nM

O=C(NCCc1ccc(Cl)cc1)c1ccc2c(c1)N=C(C1CCCCC1)c1ccccc1S2 [drawing 889]
IC50 [1]: 15.8 nM | Emax [2]: 104%

COc1ccc(C2=Nc3cc(C(=O)NC4CCCC4)ccc3Sc3ccccc32)cc1 [drawing 852]
IC50 [1]: 158 nM | Emax [2]: 103%

O=C(NN1CCCCC1)c1ccc2c(c1)N=C(c1cccc(Cl)c1)c1ccccc1S2 [drawing 1127]
IC50 [1]: 39.8 nM | Emax [2]: 106%

CCCC1=Nc2cc(C(=O)NCCN3CCOCC3)ccc2Sc2ccccc21
Emax [2]: 98%

CCCC1=Nc2cc(C(=O)NCc3ccco3)ccc2Sc2ccccc21
IC50 [1]: 31.6 nM | Emax [2]: 103%

Cc1ccsc1C1=Nc2cc(C(=O)NCCC(F)(F)F)ccc2Sc2ccccc21 [drawing 1047]
IC50 [1]: 31.6 nM | Emax [2]: 101%

CONC(=O)c1ccc2c(c1)N=C(c1ccc(C#N)cc1)c1ccccc1S2
pIC50 (Appendix A): 1.0 | Emax [2]: 36%

O=C(NCc1cccs1)c1ccc2c(c1)N=C(c1ccccn1)c1ccccc1S2 [drawing 1037]
IC50 [1]: 25.1 nM | Emax [2]: 118%
